Key:
[1] = biological target: Metabotropic glutamate receptor 6 (Homo sapiens, UniProt O15303); test: Negative allosteric modulation of human mGlu6 receptor expressed in HEK cells harboring GIRK assessed as reduction in glutamate-induced thallium flux preincubated for 2.3 mins followed by glutamate addition measured after 2.6 mins by BTC-AM-dye based fluorescence assay; type: cell-based
[2] = biological target: Metabotropic glutamate receptor 3 (Rattus norvegicus, UniProt P31422); test: Negative allosteric modulation of rat mGlu3R expressed in Trex cells co-expressing Galpha15 assessed as decrease in glutamate-induced calcium mobilization preincubated for 2.3 mins followed by glutamate addition and measured after 2.6 mins by Fluo-4-AM dye based fluorescence assay; type: functional, cell-based
[3] = Fraction unbound in rat brain; type: ADME, tissue-based
[4] = Unbound AUC in Sprague-Dawley rat brain at 10 mg/kg, ip by LC-MS/MS analysis; type: ADME, organism-based; details: in vivo
[5] = Unbound Cmax in Sprague-Dawley rat brain at 10 mg/kg, ip by LC-MS/MS analysis; type: ADME, organism-based; details: in vivo
[6] = biological target: Metabotropic glutamate receptor 8 (Rattus norvegicus, UniProt P70579); test: Negative allosteric modulation of rat mGlu8 receptor expressed in HEK cells harboring GIRK assessed as reduction in glutamate-induced thallium flux preincubated for 2.3 mins followed by glutamate addition measured after 2.6 mins by BTC-AM-dye based fluorescence assay; type: cell-based
[7] = Ratio of AUC in brain to plasma of Sprague-Dawley rat at 10 mg/kg, ip by LC-MS/MS analysis; type: ADME, organism-based; details: brain and plasma, read-out: Ratio AUC
[8] = Unbound brain to plasma ratio in Sprague-Dawley rat at 0.2 mg/kg, iv administered as cassette dose by LC-MS/MS analysis; type: ADME, organism-based; details: brain and plasma, read-out: K(p,uu,brain)
[9] = Brain to plasma partition coefficient, Kp of the compound in Sprague-Dawley rat at 0.2 mg/kg, iv administered as cassette dose by LC-MS/MS analysis; type: ADME, organism-based; details: brain and plasma
[10] = biological target: Metabotropic glutamate receptor 4 (Rattus norvegicus, UniProt P31423); test: Negative allosteric modulation of rat mGlu4 receptor expressed in HEK cells harboring GIRK assessed as reduction in glutamate-induced thallium flux preincubated for 2.3 mins followed by glutamate addition measured after 2.6 mins by BTC-AM-dye based fluorescence assay; type: cell-based
[11] = Cmax in Sprague-Dawley rat plasma at 10 mg/kg, ip by LC-MS/MS analysis; type: ADME, organism-based; design: dose 10 mg/kg, route intraperitoneal
[12] = biological target: Metabotropic glutamate receptor 5 (Homo sapiens, UniProt P41594); test: Negative allosteric modulation of human mGlu5R expressed in Trex293 cells assessed as decrease in glutamate-induced calcium mobilization preincubated for 2.3 mins followed by glutamate addition and measured after 2.6 mins by Fluo-4-AM dye based fluorescence assay; type: functional, cell-based
[13] = AUC in Sprague-Dawley rat plasma at 10 mg/kg, ip by LC-MS/MS analysis; type: ADME, organism-based; details: in vivo
[14] = biological target: Metabotropic glutamate receptor 2 (Rattus norvegicus, UniProt P31421); test: (§1) Negative allosteric modulation of rat mGlu2R expressed in HEK293 cells co-expressing Galpha15 assessed as decrease in glutamate-induced calcium mobilization preincubated for 2.3 mins followed by glutamate addition and measured after 1.7 mins by Fluo-4-AM dye based fluorescence assay; type: functional, cell-based
[15] = Half life in Sprague-Dawley rat at 0.2 mg/kg, iv administered as cassette dose by LC-MS/MS analysis; type: ADME, organism-based; details: in vivo
[16] = Fraction unbound in rat plasma after 4 hrs by equilibrium dialysis method; type: ADME, cell-free
[17] = biological target: Metabotropic glutamate receptor 7 (Rattus norvegicus, UniProt P35400); test: Negative allosteric modulation of rat mGlu7 receptor expressed in HEK cells harboring GIRK assessed as reduction in […]-induced thallium flux preincubated for 2.3 mins followed by […] addition measured after 2.6 mins by BTC-AM-dye based fluorescence assay; type: cell-based
[18] = Fraction unbound in human plasma after 4 hrs by equilibrium dialysis method; type: ADME, cell-free
[19] = Cmax in Sprague-Dawley rat brain at 10 mg/kg, ip by LC-MS/MS analysis; type: ADME, organism-based; design: dose 10 mg/kg, route intraperitoneal
[20] = biological target: Metabotropic glutamate receptor 1 (Homo sapiens, UniProt Q13255); test: Negative allosteric modulation of human mGlu1R expressed in Trex293 cells assessed as decrease in glutamate-induced calcium mobilization preincubated for 2.3 mins followed by glutamate addition and measured after 2.6 mins by Fluo-4-AM dye based fluorescence assay; type: functional, cell-based
[21] = AUC in Sprague-Dawley rat brain at 10 mg/kg, ip by LC-MS/MS analysis; type: ADME, organism-based; details: in vivo
[22] = biological target: Metabotropic glutamate receptor 2 (Rattus norvegicus) (UniProt P31421); test: as §1, with “mobilization at 30 uM” for “mobilization”, “assay relative to control” for “assay”; type: functional, cell-based

Metabotropic glutamate receptor 2, sequence (P31421 whole entry): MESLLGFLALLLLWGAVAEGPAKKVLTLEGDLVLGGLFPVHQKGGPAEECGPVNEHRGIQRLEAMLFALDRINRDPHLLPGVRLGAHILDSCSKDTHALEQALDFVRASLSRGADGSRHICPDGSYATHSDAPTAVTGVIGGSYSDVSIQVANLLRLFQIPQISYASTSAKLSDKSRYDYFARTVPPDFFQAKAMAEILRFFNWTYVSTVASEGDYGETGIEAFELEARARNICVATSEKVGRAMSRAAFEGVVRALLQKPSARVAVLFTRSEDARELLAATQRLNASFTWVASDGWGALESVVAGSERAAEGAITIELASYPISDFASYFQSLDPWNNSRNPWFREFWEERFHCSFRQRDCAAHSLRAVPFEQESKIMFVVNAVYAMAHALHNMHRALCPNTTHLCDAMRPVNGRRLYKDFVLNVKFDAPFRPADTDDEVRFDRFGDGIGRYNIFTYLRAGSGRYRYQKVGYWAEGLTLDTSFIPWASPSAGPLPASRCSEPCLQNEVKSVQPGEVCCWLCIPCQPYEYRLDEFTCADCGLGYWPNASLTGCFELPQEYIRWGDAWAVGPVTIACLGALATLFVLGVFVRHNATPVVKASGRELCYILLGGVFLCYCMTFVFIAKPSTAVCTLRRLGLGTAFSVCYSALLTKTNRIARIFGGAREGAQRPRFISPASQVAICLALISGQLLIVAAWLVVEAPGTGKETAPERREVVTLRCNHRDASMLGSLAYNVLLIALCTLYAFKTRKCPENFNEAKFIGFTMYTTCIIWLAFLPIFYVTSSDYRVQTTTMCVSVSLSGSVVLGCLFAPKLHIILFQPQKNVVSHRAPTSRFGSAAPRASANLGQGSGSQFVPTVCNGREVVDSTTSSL
Metabotropic glutamate receptor 6, sequence (O15303 whole entry): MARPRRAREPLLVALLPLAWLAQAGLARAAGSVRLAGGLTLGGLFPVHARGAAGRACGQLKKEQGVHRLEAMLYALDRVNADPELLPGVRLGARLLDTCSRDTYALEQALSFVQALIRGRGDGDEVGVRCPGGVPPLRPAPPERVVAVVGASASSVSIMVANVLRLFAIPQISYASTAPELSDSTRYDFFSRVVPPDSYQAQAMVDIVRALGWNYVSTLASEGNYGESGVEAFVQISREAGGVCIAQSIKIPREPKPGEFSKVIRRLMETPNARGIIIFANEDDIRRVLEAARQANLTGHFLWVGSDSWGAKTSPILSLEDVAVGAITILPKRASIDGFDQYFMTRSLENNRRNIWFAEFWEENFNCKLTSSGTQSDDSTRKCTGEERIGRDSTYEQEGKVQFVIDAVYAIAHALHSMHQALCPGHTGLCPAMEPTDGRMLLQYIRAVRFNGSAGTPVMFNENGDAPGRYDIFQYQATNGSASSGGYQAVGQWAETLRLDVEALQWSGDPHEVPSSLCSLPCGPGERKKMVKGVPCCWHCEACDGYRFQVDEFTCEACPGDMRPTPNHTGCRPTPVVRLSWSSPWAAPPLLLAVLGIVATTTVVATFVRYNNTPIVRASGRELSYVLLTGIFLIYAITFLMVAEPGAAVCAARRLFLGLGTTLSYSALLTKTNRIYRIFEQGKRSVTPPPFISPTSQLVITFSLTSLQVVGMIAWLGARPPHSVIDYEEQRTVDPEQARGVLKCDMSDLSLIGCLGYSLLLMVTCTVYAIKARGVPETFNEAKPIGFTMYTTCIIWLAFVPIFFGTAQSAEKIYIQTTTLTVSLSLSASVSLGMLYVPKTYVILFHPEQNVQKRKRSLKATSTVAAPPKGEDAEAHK
Metabotropic glutamate receptor 4, sequence (P31423 whole entry): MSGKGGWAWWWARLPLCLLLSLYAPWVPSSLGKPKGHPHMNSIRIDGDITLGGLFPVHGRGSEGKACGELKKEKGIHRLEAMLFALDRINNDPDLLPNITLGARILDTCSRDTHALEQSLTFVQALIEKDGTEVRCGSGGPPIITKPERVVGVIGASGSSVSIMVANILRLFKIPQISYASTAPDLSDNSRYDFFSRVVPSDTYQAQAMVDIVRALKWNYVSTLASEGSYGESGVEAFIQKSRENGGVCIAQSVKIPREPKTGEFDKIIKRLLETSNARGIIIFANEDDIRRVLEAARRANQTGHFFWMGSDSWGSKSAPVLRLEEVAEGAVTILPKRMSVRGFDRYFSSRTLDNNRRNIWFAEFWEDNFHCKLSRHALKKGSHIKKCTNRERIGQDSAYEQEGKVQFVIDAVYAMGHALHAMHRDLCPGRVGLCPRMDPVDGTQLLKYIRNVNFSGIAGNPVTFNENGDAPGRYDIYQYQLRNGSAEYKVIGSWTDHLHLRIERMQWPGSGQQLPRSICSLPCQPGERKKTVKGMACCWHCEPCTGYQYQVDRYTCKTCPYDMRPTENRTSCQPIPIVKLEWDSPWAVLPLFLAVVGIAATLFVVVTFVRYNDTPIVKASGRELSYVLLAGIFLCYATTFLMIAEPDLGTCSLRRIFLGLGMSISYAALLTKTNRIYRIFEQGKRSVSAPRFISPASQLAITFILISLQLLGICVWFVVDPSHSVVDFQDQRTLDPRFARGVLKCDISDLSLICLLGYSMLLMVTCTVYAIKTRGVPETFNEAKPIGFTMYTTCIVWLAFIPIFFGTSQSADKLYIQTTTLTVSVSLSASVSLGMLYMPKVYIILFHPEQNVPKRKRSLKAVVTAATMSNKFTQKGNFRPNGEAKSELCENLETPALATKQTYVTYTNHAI
Metabotropic glutamate receptor 3, sequence (P31422 whole entry): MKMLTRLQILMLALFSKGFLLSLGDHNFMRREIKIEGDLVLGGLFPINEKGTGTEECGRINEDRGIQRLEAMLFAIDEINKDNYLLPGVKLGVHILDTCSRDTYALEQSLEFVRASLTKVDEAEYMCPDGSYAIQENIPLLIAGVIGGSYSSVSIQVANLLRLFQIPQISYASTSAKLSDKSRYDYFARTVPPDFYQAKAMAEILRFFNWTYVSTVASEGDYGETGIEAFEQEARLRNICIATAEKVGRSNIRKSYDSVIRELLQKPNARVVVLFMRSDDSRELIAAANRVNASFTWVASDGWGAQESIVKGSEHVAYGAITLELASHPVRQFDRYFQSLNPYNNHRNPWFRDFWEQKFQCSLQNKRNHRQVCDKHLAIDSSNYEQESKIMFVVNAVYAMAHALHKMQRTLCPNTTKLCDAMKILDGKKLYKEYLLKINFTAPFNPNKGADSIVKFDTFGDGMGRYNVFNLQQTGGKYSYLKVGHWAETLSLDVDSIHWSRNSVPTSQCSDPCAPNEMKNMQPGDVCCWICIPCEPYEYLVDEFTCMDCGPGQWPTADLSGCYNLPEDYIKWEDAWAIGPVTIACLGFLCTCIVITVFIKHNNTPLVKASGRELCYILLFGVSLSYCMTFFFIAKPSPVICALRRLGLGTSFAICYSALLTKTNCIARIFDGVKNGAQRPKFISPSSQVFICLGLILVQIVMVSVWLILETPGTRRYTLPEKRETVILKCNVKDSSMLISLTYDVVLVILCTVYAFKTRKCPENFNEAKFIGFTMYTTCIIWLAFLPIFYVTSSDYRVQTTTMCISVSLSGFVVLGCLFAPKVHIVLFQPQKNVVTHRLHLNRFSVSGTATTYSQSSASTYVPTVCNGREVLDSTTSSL
Metabotropic glutamate receptor 7, sequence (P35400 whole entry): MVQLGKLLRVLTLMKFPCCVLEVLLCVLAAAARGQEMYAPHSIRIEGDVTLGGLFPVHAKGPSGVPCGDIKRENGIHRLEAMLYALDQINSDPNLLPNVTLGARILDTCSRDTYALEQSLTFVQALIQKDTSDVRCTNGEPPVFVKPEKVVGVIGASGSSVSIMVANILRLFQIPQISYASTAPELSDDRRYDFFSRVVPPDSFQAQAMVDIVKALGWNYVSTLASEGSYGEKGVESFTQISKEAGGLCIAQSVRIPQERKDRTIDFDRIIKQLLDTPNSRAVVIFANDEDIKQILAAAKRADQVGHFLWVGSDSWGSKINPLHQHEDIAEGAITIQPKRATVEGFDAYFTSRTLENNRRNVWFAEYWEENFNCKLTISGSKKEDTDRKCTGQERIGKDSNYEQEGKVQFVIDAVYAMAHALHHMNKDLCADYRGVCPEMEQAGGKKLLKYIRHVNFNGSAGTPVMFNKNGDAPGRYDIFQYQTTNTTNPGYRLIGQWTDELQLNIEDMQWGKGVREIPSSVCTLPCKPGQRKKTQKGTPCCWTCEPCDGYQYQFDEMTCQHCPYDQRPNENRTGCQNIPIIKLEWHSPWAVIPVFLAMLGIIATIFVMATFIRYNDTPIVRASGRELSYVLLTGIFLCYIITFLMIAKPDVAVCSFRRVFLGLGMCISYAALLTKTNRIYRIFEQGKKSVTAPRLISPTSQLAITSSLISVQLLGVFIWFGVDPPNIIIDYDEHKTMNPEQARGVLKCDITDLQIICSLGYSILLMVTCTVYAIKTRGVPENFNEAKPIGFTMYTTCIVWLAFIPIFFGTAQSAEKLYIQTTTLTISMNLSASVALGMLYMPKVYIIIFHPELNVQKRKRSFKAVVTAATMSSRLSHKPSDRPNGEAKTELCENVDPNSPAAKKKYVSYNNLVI

For `C[C@@H]1CN(Cc2cc3nc(C(N)=O)cc(-c4ccc(F)cc4)c3s2)C[C@H](C)O1`, the IC50 [1] was > 30 µM, the IC50 [2] was > 30 µM and the fraction unbound [3] was 0.005. For the same compound, the fAUC [4] was 165 nM, the fCmax [5] was 30.4 nM and the IC50 [6] was > 30 µM. The Kp [7] was 5.67, the Kp uu [8] was 0.52 and the Kp [9] was 5.67. For the same compound, the IC50 [10] was > 30 µM, the Cmax [11] was 1070 nM and the IC50 [12] was > 30 µM. For the same compound, the AUC [13] was 5.81 µM, the IC50 [14] was 550 nM and the t1/2 [15] was 1.5 h. The fraction unbound at 4 h [16] was 0.05, the IC50 [17] was > 30 µM and the fraction unbound at 4 h [18] was 0.01. For the same compound, the Cmax [19] was 6.09 µM, the IC50 [20] was > 30 µM and the AUC [21] was 32.9 µM. The Emax [22] was 2.3%.

Reference: ChEMBL document CHEMBL4308859, “Discovery of Novel Central Nervous System Penetrant Metabotropic Glutamate Receptor Subtype 2 (mGlu2) Negative Allosteric Modulators (NAMs) Based on Functionalized Pyrazolo[1,5- a]pyrimidine-5-carboxamide and Thieno[3,2- b]pyridine-5-carboxamide Cores” (J Med Chem, 2018)
